Source: patent EP0390112B1, “Selective adenosine receptor agents” (MERRELL PHARMACEUTICALS INC., priority 1989, dated 1990)

What was measured:
Adenosine A-1 receptor = target: T1, Adenosine A-1 receptor (Rattus norvegicus, UniProt P25099); experiment: Test for affinity for brain adenosine A-1 receptor binding sites ([3H]cyclohexyladenosine competition); settings: [3H]cyclohexyladenosine 0.8 nM, rat brain membranes, 25°C, 2 hours
T1 construct: the membranes are isolated from whole animal brains; from tissue; host or cells: whole brain of male Sprague-Dawley rats
T1 sequence (P25099 1-326): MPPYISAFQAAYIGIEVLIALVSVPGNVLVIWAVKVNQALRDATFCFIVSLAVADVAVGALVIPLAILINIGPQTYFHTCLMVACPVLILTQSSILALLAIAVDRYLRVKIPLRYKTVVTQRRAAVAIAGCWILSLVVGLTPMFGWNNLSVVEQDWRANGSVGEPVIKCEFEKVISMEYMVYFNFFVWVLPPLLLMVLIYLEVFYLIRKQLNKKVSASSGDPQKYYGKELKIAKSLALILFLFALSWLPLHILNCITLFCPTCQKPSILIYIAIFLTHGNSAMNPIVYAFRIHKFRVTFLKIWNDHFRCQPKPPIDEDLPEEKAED
Description: Test For Affinity For Brain Adenosine A-1 Receptor Binding Sites
The test described below is used to determine the potency of test compounds to compete with the ligand [3H]cycloadenosine for the Adenosine A-1 receptor prepared from rat brain membranes. Male Sprague-Dawley rats are sacrificed by decapitation and the membranes are isolated from whole animal brains. (See R. Goodman, M. Cooper, M. Gavish, and S. Synder, Guanine Nucleotide and Cation Regulation of the Binding of [3H] Diethylphenylxanthine to Adenosine A-1 Receptors in Brain Membrane, Molecular Pharmacology, 21, 329-335, (1982), incorporated herein by reference.)
Membranes are homogenized (using polytron setting 7 for 10 seconds) in 25 volumes of ice-cold 50 mM Tris-HCl buffer, pH 7.7. The homogenate is centrifuged at 19,000 rpm for 10 minutes at 4°C. The pellet is washed by resuspending in 25 volumes of buffer with 2 IU of adenosine deaminase per ml and incubated 30 minutes at 37°C. The homogenate is centrifuged again. The final pellet is resuspended in 25 volumes of ice-cold buffer.
The incubation tubes, in triplicate, receive 100 µl of [3H]cyclohexyladenosine, 0.8 nM in the assay, 200 µl of test compounds at various concentrations over the range of 10^-10 M to 10^-6 M diluted with […] Tris-HCl buffer (pH 7.7), 0.2 ml of membrane suspension (8 mg wet weight) and in a final volume of 2 ml with Tris buffer. Incubations are carried out at 25°C for 2 hours and each one is terminated within 10 seconds by filtration through a GF/B glass fiber filter using a vacuum. The membranes on the filters are transferred to scintillation vials. The filters are counted by liquid scintillation spectometry in 8 ml of Omniflour containing 5% Protosol.
Specific binding of [3H]cycloadenosine is measured as the excess over blanks taken in the presence of 10^-5 M 2-chloroadenosine. Total membrane-bound radioactivity is about 5% of that added to the test tubes. Specific binding to membranes is about 90% of the total bound. Protein content of the membrane suspension is determined by the method of Lowry, et al. Id., 265.
Displacement of [3H]cyclohexyladenosine binding of 15% or more by a test compound is indicative of affinity for the adenosine binding site.

adenosine A-2 receptors = target: T2, adenosine A-2 receptors (Rattus norvegicus, UniProt P30543); experiment: Test for affinity for brain adenosine A-2 receptors ([3H]NECA competition); assay type: binding; settings: rat brain striatum membranes, 25°C, 60 minutes, read-out: A-2 Receptor Ki
T2 construct: the adenosine A-2 receptors prepared from animal brain membranes; from tissue; host or cells: striatum of young male rats (C-D strain, Charles River)
Description: Test For Affinity For Brain Adenosine A-2 Receptors
The test described below was used to determine the potency of test compounds to compete with the ligand [3H]5′-N-ethyl-carboxamidoadenosine (NECA) for the adenosine A-2 receptors prepared from animal brain membranes. (See also R.R. Bruns, G.H. Lu, and T.A. Pugsley, Characterization of the A-2 Adenosine Receptor Labeled by [3H]NECA in Rat Striatal Membranes, Mol. Pharmacol., 29, 331-346, (1986), incorporated herein by reference.) Young male rats (C-D strain), obtained from Charles River, are killed by decapitation and the brain was removed. Membranes for ligand binding are isolated from rat brain striatum. The tissue is homogenized in 20 vol ice-cold 50 mM Tris-HCl buffer (pH 7.7) using a polytron (setting 6 for 20 seconds). The homogenate is centrifuged at 50,000 x g for 10 minutes at 4°C. The pellet is again homogenized in a polytron in 20 vol of buffer, and centrifuged as before. The pellet is finally resuspended in 40 vol of 50mM Tris-HCl (pH 7.7) per gram of original wet weight of tissue.
Incubation tubes, in triplicate, receive 100 µl of [3H]NECA (94 nM in the assay), 100 µl of 1 µM cyclohexyladenosine (CHA), 100 µl of 100 mM MgCl2, 100 µl of 1 IU/ml adenosine deaminase, 100 µl of test compounds at various concentrations over the range of 10^-10 M to 10^-4 M diluted with assay buffer (50 mM Tris-HCl, pH 7.7) and […] of membrane suspension (5 mg wet weight), in a final volume of 1 ml of 50 mM Tris-HCl, pH 7.7. Incubations are carried out at 25°C for 60 minutes. Each tube is filtered through GF/B glass fiber filters using a vacuum. The filters are rinsed two times with 5 ml of the ice-cold buffer. The membranes on the filters are transferred to scintillation vials to which 8 ml of Omnifluor with 5% Protosol is added. The filters are counted by liquid scintillation spectrometry.
Specific binding of [3H]NECA is measured as the excess over blanks run in the presence of 100 µM 2-chloroadenosine. Total membrane-bound radioactivity is about 2.5% of that added to the test tubes. […] Specific binding to membranes is about 50% of the total bound. Protein content of the membrane suspension is determined by the method of O.H. Lowry, N.J. Rosebrough, A.L. Farr and R.J. Randall, Protein Measurements With Folin Phenol Reagent, J. Biol. Chem., 193, 265-275 (1951), (incorporated herein by reference).
Displacement of [3H]NECA binding of 15% or more by a test compound is indicative of affinity for the adenosine A-2 site. The molar concentration of a compound which causes 50% inhibition of the binding of ligand is the IC50.

A-2 receptors = settings: brain slice assay; cited from earlier work

T2 sequence (P30543 whole entry): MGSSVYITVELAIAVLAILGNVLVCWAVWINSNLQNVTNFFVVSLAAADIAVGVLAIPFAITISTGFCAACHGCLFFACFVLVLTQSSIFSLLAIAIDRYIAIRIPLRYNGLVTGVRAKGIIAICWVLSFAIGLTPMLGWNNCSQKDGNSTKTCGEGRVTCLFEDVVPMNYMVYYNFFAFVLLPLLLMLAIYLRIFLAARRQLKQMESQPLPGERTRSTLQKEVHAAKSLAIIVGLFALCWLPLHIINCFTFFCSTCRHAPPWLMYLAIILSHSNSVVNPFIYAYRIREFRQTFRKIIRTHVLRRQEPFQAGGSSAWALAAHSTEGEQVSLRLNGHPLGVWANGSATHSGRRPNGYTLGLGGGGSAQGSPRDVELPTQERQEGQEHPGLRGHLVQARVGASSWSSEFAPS

| Compound | Ki (Adenosine A-1 receptor) [nM] | Ki (adenosine A-2 receptors) [nM] | Ki (A-2 receptors) [nM] |
| --- | --- | --- | --- |
| CCCOc1nc(N[C@H](C)Cc2ccccc2)c2cnn(-c3ccccc3)c2n1 [Compound 1, (R)-N-(1-methyl-2-phenylethyl)-1-phenyl-6-propoxy-1H-pyrazolo[3,4-d]pyrimidin-4-amine] | 2010 | 3630 |  |
| CCCn1c(=O)c2[nH]c(-c3ccc(OCC(=O)NCCN)cc3)nc2n(CCC)c1=O [XAC, amino congener of 8-phenyl-1,3-dipropyl-xanthine] |  |  | 49 ± 17 |
| CCCn1c(=O)c2[nH]c(-c3ccc(OCC(=O)O)cc3)nc2n(CCC)c1=O [XCC, carboxylic acid congener of 8-phenyl-1,3-dipropyl-xanthine] |  |  | 34 ± 13 |

Now from value to molecule, other results behind:

| Ki (Adenosine A-1 receptor) [nM] | Ki (adenosine A-2 receptors) [nM] | Compound | Ki (A-2 receptors) [nM] |
| --- | --- | --- | --- |
| 11300 | > 6990 | CCCOc1nc(N[C@@H](C)Cc2ccccc2)c2cnn(-c3ccccc3)c2n1 [Compound 2, (S)-N-(1-methyl-2-phenylethyl)-1-phenyl-6-propoxy-1H-pyrazolo[3,4-d]pyrimidin-4-amine] |  |
| 1740 | 2900 | CCCOc1nc(N[C@H](CO)Cc2ccccc2)c2cnn(-c3ccccc3)c2n1 [Compound 3, (S)-β-[(1-phenyl-6-propoxy-1H-pyrazolo[3,4-d]pyrimidin-4-yl)amino]benzenepropanol] |  |
| 321 | 377 | CCCOc1nc(N[C@@H](CO)Cc2ccccc2)c2cnn(-c3ccccc3)c2n1 [Compound 4, (R)-β-[(1-phenyl-6-propoxy-1H-pyrazolo[3,4-d]pyrimidin-4-yl)amino]benzenepropanol] |  |
| 3700 | 17200 | CCCOc1nc(N[C@@H](CO)Cc2ccccc2)c2ncn([C@@H]3O[C@H](CO)[C@@H](O)[C@H]3O)c2n1 [Compound 5] |  |
| 44 | 1900 | CCCOc1nc(N[C@H](CO)Cc2ccccc2)c2ncn([C@@H]3O[C@H](CO)[C@@H](O)[C@H]3O)c2n1 [Compound 6] |  |
